# Reference: patent US20250269039A1, “THERAPEUTIC-OLIGONUCLEOTIDES ACTIVATED BY NUCLEASES” (priority 2020, published 2025)
# Where two headings read alike, the source gives them in different places.
# What was measured:
# [1] = tested on: S. aureus ATCC1766; experiment: Mouse thigh muscle infection model: gross pictures, histopathology, bacteria counts; format: in vivo, mice; conditions: for histopathological analysis of infected leg / visible bacterial infection of infected leg (gross photographs): mice, i.v.; for histopathological analysis of infected leg: 20 mg/kg/24 hour Floxuridine equivalent, FIG. 7d-g; for visible bacterial infection of infected leg (gross photographs): four doses equivalent to 5 mg/kg Floxuridine over 24 hours, FIG. 7a-c
# Procedure: In vivo assessment of the therapeutic efficacy of TOUCANs in a mouse infection model. All animal experiments described in this study were conducted at the Linköping University Center for Biomedical Resources and were approved by the Swedish Ethical Board “Jordbruksverket” under the animal protocol 1253. All experiments were conducted according to the principles expressed in the Declaration of Helsinki. Six-weeks old female […] mice were divided into three different groups: Placebo (saline solution), Floxuridine alone and TOUCAN 7mFx, with 8 mice per group. First, to induce the infection, S. aureus ATCC1766 strain was cultured on tryptone soy agar with 5% defibrinated sheep blood, and single colonies were transferred to 25 mL tryptone soy broth and incubated at 37° C. for 12 hours with 200 rpm shaking. Next, bacteria solution was diluted 1/100 using PBS+/+ (˜10^7 CFU/mL) and 50 μL (˜5×10^5 CFU) were injected into the right thigh muscles of all mice under sterile conditions and 2% isoflurane anesthesia. This method was optimized based on our previous animal infection model.^16 In this model, the left uninfected leg was used as control for each animal. This model induces reproducible infections after 24 hours. Next, the therapeutic regime was adapted from a previous study that validated the efficacy of several antibiotics against S. aureus.^28 We have treated the mice for 24 hours with four doses of TOUCAN 7mFx equivalent to 5 mg/kg of Floxuridine in 100 μL of PBS−/−, administered intravenously by tail vein injections. The first dose was administered after 2 hours post-inoculation, followed by 3 additional injections at the same concentration every 6 hours. In total, each animal was given TOUCAN 7mFx equivalent to 20 mg/kg/24 hour of Floxuridine. In this study, two additional groups, Placebo and Floxuridine alone, were also tested in infected animals. In the Placebo group, mice were injected with a saline solution (PBS), and in the Floxuridine group, mice were injected with 20 mg/kg/24 hours of Floxuridine under the same conditions indicated for TOUCAN 7mFx. After 24 hours, blood samples were collected, and mice were euthanized. For a thorough blood analysis, we have included an additional group of uninfected/untreated mice as control. Next, gross pictures of both legs were taken and samples for histopathological and bacteriological analyses were collected. At least four mice per group per analysis were used in this study.
# Gross pictures. Once the mice were euthanized, the skin from legs and dorsal part was removed very carefully to allow observation of the bacterial infection and the associated tissue damage. Next, photographs were taken to document the localized infection for each animal.
# Histopathological analysis. To evaluate the histopathological features of infected and uninfected tissues, the thigh muscles of the animals were dissected. Subsequently, tissues were transferred to 4% buffered formaldehyde solution and stored at 4° C. for 24 hours. Then, tissues were removed from the formaldehyde solution and transferred into 50% ethanol for 15 minutes followed by 70% ethanol until processed. Next, tissues were fixed, dehydrated and wax infiltrated using a Leica TP1020 system for 7 hours. Subsequently, tissues were embedded in paraffin using a Leica EG 1150 system. The sections slides were prepared using an Automatic Rotary Microtome HM355S system and finally, samples were stained with Hematoxylin-Eosin (H&E) using an Automatic Leica ST4020 Linear Stainer. The slides were imaged using an Olympus BX51 light microscope.
# Bacteria counts. To measure viable bacteria in mice, infected and uninfected tissues from both legs were collected, transferred to individual 1.5 mL vials and weighted on a microbalance. Each sample was homogenized in 1 mL of PBS using Fisherbrand Bead Mill 4 automatic homogenizer (Fisher Scientific). The homogenized solutions were serially diluted to 1:100, 1:1.000, 1:10.000 and 1:100.000. […]
# [2] = tested on: P. aeruginosa ATCC 10145; experiment: Broth microdilution MIC and growth inhibition (control bacteria); format: cell-based; conditions: for MIC: TOUCAN as NA equivalent
# Excerpt: (§1) Bacteria strains. S. aureus NCTC 12493 (MRSA), S. aureus ATCC 29213 (MSSA), S. aureus ATCC 43300 (MRSA), S. aureus ATCC 1707 (MRSA), S. aureus ATCC 1717 (MRSA), S. aureus ATCC 1747 (MRSA), S. aureus ATCC 1761 (MRSA), S. aureus ATCC 1766 (MRSA), S. aureus ATCC 1768 (MRSA), S. epidermidis ATCC 35984, E. coli ATCC 25922, K. pneumoniae ATCC 13883, P. mirabilis ATCC 25933, S. enterica ATCC 14028 and P. aeruginosa ATCC 10145 strains were used in this study. Bacteria were initially inoculated onto tryptone soy agar with 5% defibrinated sheep blood (Thermo Fisher Scientific, Inc., Waltham, MA, USA) and incubated at 37° C. for 24 hours. Then, single colonies of each strain were transferred to tryptone soy broth (Thermo Fisher Scientific) for the nuclease activity assay or antimicrobial susceptibility testing, respectively.
# (§2) Antimicrobial susceptibility testing. Minimal inhibitory concentrations (MIC) of all nucleoside analogues and TOUCANs against each bacteria strain were determined using broth microdilution method. A single colony obtained from overnight culture on tryptone soy agar with 5% defibrinated sheep blood was inoculated in cation-adjusted Mueller Hinton Broth and adjusted to 10^6 CFU/mL. TOUCANs were prepared in PBS+/+ (treatment) and serial dilutions were made in 96-well polystyrene round bottom microwell plates with 50 μL final volume for each concentration. PBS+/+ was used as untreated control. Next, 50 μL bacteria solutions were added to each well to a final bacteria concentration of 5×10^5 CFU/mL. Plates were incubated at 37° C. in Cytation 1 Cell Imaging Multimode Reader. Growth curves were obtained by measuring optical densities at 600 nm every 10 minutes for 18 hours using Cytation 1 Cell Imaging Multimode Reader. In addition, visual inspection of the plates was carried out after 18 hours and photographs were taken. MICs were defined as the lowest drug concentration in the microwell at which bacterial growth was not visible at the end of the incubation period. Besides MIC determination, specificity of TOUCAN 7mGe was also shown with subcultures on chromogenic media. For this purpose, 5 μL of different concentrations of each strain were inoculated onto CHROM agar Orientation Media (Becton Dickinson) and the bacterial growth of each bacteria strain tested was observed by naked eye after incubation at 37° C. for 24 hours. Finally, photographs of the chromogenic media were taken.
# [3] = tested on: K. pneumoniae ATCC 13883; experiment: as above; format: cell-based; conditions: for MIC: TOUCAN as NA equivalent
# Excerpt: as §1, §2
# [4] = tested on: S. enterica ATCC 14028; experiment: as above; format: cell-based; conditions: for MIC: TOUCAN as NA equivalent
# Excerpt: as §1, §2
# [5] = infected leg, CFU/g, after 24 hours, FIG. 7h
compound,measurement,setting,value
"O=c1[nH]c(=O)n([C@H]2C[C@H](O)[C@@H](CO)O2)cc1F [Floxuridine, reference compound]",bacteria count of infected leg,"[1]; infected leg, after 24 hours, FIG. 7h",high bacteria count
same,histopathological analysis of infected leg,[1],"clear evidence of bacterial infection, inflammation, and neutrophil infiltration"
same,visible bacterial infection of infected leg (gross photographs),[1],slightly stronger infection
same,MIC,"[2]; Pseudomonas aeruginosa, ATCC10145, 18 h, read-out: MIC",> 40 µg/mL
same,MIC,"[3]; Klebsiella pneumoniae, ATCC13883, 18 h, read-out: MIC",20 µg/mL
same,MIC,"[4]; Salmonella enterica, ATCC14028, 18 h, read-out: MIC",20 µg/mL
mU-mU-mU-mU-T-T-Fx [TOUCAN 7mFx],times less bacteria recovered compared to Floxuridine group,[1]; [5],2949 times
same,times less bacteria recovered compared to Placebo group,[1]; [5],642 times
same,histopathological analysis of infected leg,[1],minimal inflammation with residual neutrophil infiltration
same,visible bacterial infection of infected leg (gross photographs),[1],do not show any visible signs of bacterial infection
same,MIC,[2]; 18 h,>40 µg/mL
same,TOUCAN % Growth inhibition,"[2]; mean ± SD, n = 3",7.2 ± 1.4%
same,MIC,[3]; 18 h,>40 µg/mL
same,TOUCAN % Growth inhibition,"[3]; mean ± SD, n = 3",0 ± 0.00%
same,MIC,[4]; 18 h,>40 µg/mL
same,TOUCAN % Growth inhibition,"[4]; mean ± SD, n = 3",10.8 ± 2.1%
